Earlier results as cited in PubChem BioAssay AID1259409 (Chemical Carcinogenesis Research Information System (CCRIS), 2018).

System: rodent chemically induced tumor inhibition, incidence and multiplicity
Test: CCRIS tumor inhibitor studies
Settings: Route [Inhibitor]: ORAL, Promoter: NONE USED

**Q.** Which “tumour outcome (control, treated, inhibition, significance)” value (Carcinogen: N-METHYL-N-NITROSOUREA, 684-93-5, Dose [Inhibitor]: 2 MMOL/KG DIET DAILY STARTING 12 D AFTER CARCINOGEN TREATMENT THROUGH ABOUT 8 MO AFTER CARCINOGEN DOSE (STUDY DURATION:, Species: RAT, Strain/Sex: F344/MALE, Target Tissue: Type of Lesion: COLON: ADENOMA, Dose [Carcinogen]: 2.5 MG 1/WK FOR 2 WK) does the source give for `CCNC(=O)/C=C(C)/C=C/C=C(C)/C=C/C1=C(C)CCCC1(C)C` here?
**A.** 16/39 (41%), 10/30 (33%), 20%, not significant

**Q.** And the “tumour outcome (control, treated, inhibition, significance)” value (Carcinogen: N-METHYL-N-NITROSOUREA, 684-93-5, Dose [Inhibitor]: 327 MG/KG DIET DAILY STARTING 1 WK AFTER LAST CARCINOGEN TREATMENT AND CONTINUING FOR 6 MO (STUDY DURATION: 9 MO), Species: HAMSTER, Strain/Sex: SYRIAN/MALE, Target Tissue: Type of Lesion: TRACHEA: BENIGN EPITHELIAL NEOPLASM, Dose [Carcinogen]: 0.5% IN 1 ML PHOSPHATE-BUFFERED SALINE 1/WK FOR 12 WK)?
**A.** 6/63 (10%), 12/63 (19%), -90%, not significant

**Q.** What about the “tumour outcome (control, treated, inhibition, significance)” value (Carcinogen: N-METHYL-N-NITROSOUREA, 684-93-5, Dose [Inhibitor]: 327 MG/KG DIET DAILY STARTING 1 WK AFTER LAST CARCINOGEN TREATMENT AND CONTINUING FOR 6 MO (STUDY DURATION: 9 MO), Species: HAMSTER, Strain/Sex: SYRIAN/MALE, Target Tissue: Type of Lesion: TRACHEA: CARCINOMA, Dose [Carcinogen]: 0.5% IN 1 ML PHOSPHATE-BUFFERED SALINE 1/WK FOR 12 WK) of the same compound?
**A.** 4/63 (6%), 12/63 (19%), -217%, p<0.05

**Q.** What about the “tumour outcome (control, treated, inhibition, significance)” value (Carcinogen: N-METHYL-N-NITROSOUREA, 684-93-5, Dose [Inhibitor]: 327 MG/KG DIET DAILY STARTING 1 WK AFTER LAST CARCINOGEN TREATMENT AND CONTINUING FOR 6 MO (STUDY DURATION: 9 MO), Species: HAMSTER, Strain/Sex: SYRIAN/MALE, Target Tissue: Type of Lesion: TRACHEA: EPITHELIAL NEOPLASM, Dose [Carcinogen]: 0.5% IN 1 ML PHOSPHATE-BUFFERED SALINE 1/WK FOR 12 WK) of the same compound?
**A.** 10/63 (16%), 24/63 (38%), -138%, p<0.01

**Q.** What about the “tumour outcome (control, treated, inhibition, significance)” value (Carcinogen: N-METHYL-N-NITROSOUREA, 684-93-5, Dose [Inhibitor]: 327 MG/KG IN DIET DAILY FOR 6 MO STARTING 1 WK AFTER FINAL CARCINOGEN DOSE (STUDY DURATION: 9 MO), Species: HAMSTER, Strain/Sex: SYRIAN/MALE, Target Tissue: Type of Lesion: TRACHEA: BENIGN EPITHELIAL NEOPLASM, Dose [Carcinogen]: 0.5% SOLUTION FOR 5 SECOND EXPOSURE 1/WK FOR 12 WK) of the same compound?
**A.** 6/63 (10%), 12/63 (19%), -90%, not significant

**Q.** What about the “tumour outcome (control, treated, inhibition, significance)” value (Carcinogen: N-METHYL-N-NITROSOUREA, 684-93-5, Dose [Inhibitor]: 327 MG/KG IN DIET DAILY FOR 6 MO STARTING 1 WK AFTER FINAL CARCINOGEN DOSE (STUDY DURATION: 9 MO), Species: HAMSTER, Strain/Sex: SYRIAN/MALE, Target Tissue: Type of Lesion: TRACHEA: CARCINOMA, Dose [Carcinogen]: 0.5% SOLUTION FOR 5 SECOND EXPOSURE 1/WK FOR 12 WK) of the same compound?
**A.** 4/63 (6%), 12/63 (19%), -216%, p<0.05

**Q.** And the “tumour outcome (control, treated, inhibition, significance)” value (Carcinogen: N-METHYL-N-NITROSOUREA, 684-93-5, Dose [Inhibitor]: 327 MG/KG IN DIET DAILY FOR 6 MO STARTING 1 WK AFTER FINAL CARCINOGEN DOSE (STUDY DURATION: 9 MO), Species: HAMSTER, Strain/Sex: SYRIAN/MALE, Target Tissue: Type of Lesion: TRACHEA: EPITHELIAL NEOPLASM, Dose [Carcinogen]: 0.5% SOLUTION FOR 5 SECOND EXPOSURE 1/WK FOR 12 WK)?
**A.** 10/63 (16%), 24/63 (38%), -138%, p<0.01

**Q.** What about the “tumour outcome (control, treated, inhibition, significance)” value (Carcinogen: N-METHYL-N-NITROSOUREA, 684-93-5, Dose [Inhibitor]: 654 MG/KG DIET DAILY FOR 24 WK STARTING 5 D AFTER LAST DOSE OF CARCINOGEN (STUDY DURATION: 32 WK), Species: RAT, Strain/Sex: F344/MALE, Target Tissue: Type of Lesion: COLON: SARCOMA, Dose [Carcinogen]: 0.5 MG 2/WK FOR 8 WK) of the same compound?
**A.** 5/40 (13%), 1/40 (3%), 77%, not calculated

**Q.** What about the “tumour outcome (control, treated, inhibition, significance)” value (Carcinogen: N-METHYL-N-NITROSOUREA, 684-93-5, Dose [Inhibitor]: 654 MG/KG DIET DAILY FOR 24 WK STARTING 5 D AFTER LAST DOSE OF CARCINOGEN (STUDY DURATION: 32 WK), Species: RAT, Strain/Sex: F344/MALE, Target Tissue: Type of Lesion: COLON: TUMOR, Dose [Carcinogen]: 0.5 MG 2/WK FOR 8 WK) of the same compound?
**A.** 60%, 65%, -8%, not significant

**Q.** And the “tumour outcome (control, treated, inhibition, significance)” value (Carcinogen: N-METHYL-N-NITROSOUREA, 684-93-5, Dose [Inhibitor]: 654 MG/KG DIET DAILY FOR 38 WK STARTING 5 D AFTER LAST DOSE OF CARCINOGEN (STUDY DURATION: 44 WK), Species: RAT, Strain/Sex: F344/MALE, Target Tissue: Type of Lesion: COLON: TUMOR, Dose [Carcinogen]: 0.5 MG 2/WK FOR 6 WK)?
**A.** 62%, 62%, 0%, not significant

**Q.** What about the “tumour outcome (control, treated, inhibition, significance)” value (Carcinogen: N-METHYL-N-NITROSOUREA, 684-93-5, Dose [Inhibitor]: 654 MG/KG DIET DAILY FOR 48 WK STARTING 5 D AFTER LAST DOSE OF CARCINOGEN (STUDY DURATION: 52 WK), Species: RAT, Strain/Sex: F344/MALE, Target Tissue: Type of Lesion: COLON: TUMOR, Dose [Carcinogen]: 0.5 MG 2/WK FOR 4 WK) of the same compound?
**A.** 31%, 30%, 3%, not significant

**Q.** And the “tumour outcome (control, treated, inhibition, significance)” value (Carcinogen: N-NITROBIS(2-OXOPROPYL)AMINE, 60559-38-4, Dose [Inhibitor]: 0.5 OR 1.0 MMOL/KG DIET DAILY STARTING 1 WK AFTER CARCINOGEN TREATMENT AND CONTINUING THROUGH THE END OF THE STUDY (STUD, Species: HAMSTER, Strain/Sex: SYRIAN/FEMALE, Target Tissue: Type of Lesion: LIVER: BENIGN TUMOR, Dose [Carcinogen]: 40 MG/KG BW ONCE)?
**A.** 4/20 (20%), 17/37 (46%), -130%, not significant

**Q.** What about the “tumour outcome (control, treated, inhibition, significance)” value (Carcinogen: N-NITROBIS(2-OXOPROPYL)AMINE, 60559-38-4, Dose [Inhibitor]: 0.5 OR 1.0 MMOL/KG DIET DAILY STARTING 1 WK AFTER CARCINOGEN TREATMENT AND CONTINUING THROUGH THE END OF THE STUDY (STUD, Species: HAMSTER, Strain/Sex: SYRIAN/FEMALE, Target Tissue: Type of Lesion: ND: TOTAL TUMOR, Dose [Carcinogen]: 40 MG/KG BW ONCE) of the same compound?
**A.** 17/20 (85%), 32/37 (86%), 1%, not significant

**Q.** And the “tumour outcome (control, treated, inhibition, significance)” value (Carcinogen: N-NITROBIS(2-OXOPROPYL)AMINE, 60559-38-4, Dose [Inhibitor]: 0.5 OR 1.0 MMOL/KG DIET DAILY STARTING 1 WK AFTER CARCINOGEN TREATMENT AND CONTINUING THROUGH THE END OF THE STUDY (STUD, Species: HAMSTER, Strain/Sex: SYRIAN/FEMALE, Target Tissue: Type of Lesion: PANCREAS: DUCTULAR ADENOMA, Dose [Carcinogen]: 10 MG/KG BW ONCE)?
**A.** 5/23 (23%), 13/25 (52%), -126%, not significant

**Q.** And the “tumour outcome (control, treated, inhibition, significance)” value (Carcinogen: N-NITROBIS(2-OXOPROPYL)AMINE, 60559-38-4, Dose [Inhibitor]: 0.5 OR 1.0 MMOL/KG DIET DAILY STARTING 1 WK AFTER CARCINOGEN TREATMENT AND CONTINUING THROUGH THE END OF THE STUDY (STUD, Species: HAMSTER, Strain/Sex: SYRIAN/FEMALE, Target Tissue: Type of Lesion: PANCREAS: DUCTULAR ADENOMA, Dose [Carcinogen]: 40 MG/KG BW ONCE)?
**A.** 12/20 (60%), 27/37 (73%), -22%, not significant

**Q.** And the “tumour outcome (control, treated, inhibition, significance)” value (Carcinogen: N-NITROBIS(2-OXOPROPYL)AMINE, 60559-38-4, Dose [Inhibitor]: 0.5 OR 1.0 MMOL/KG DIET DAILY STARTING 1 WK AFTER CARCINOGEN TREATMENT AND CONTINUING THROUGH THE END OF THE STUDY (STUD, Species: HAMSTER, Strain/Sex: SYRIAN/FEMALE, Target Tissue: Type of Lesion: PANCREAS: DUCTULAR CARCINOMA, Dose [Carcinogen]: 10 MG/KG BW ONCE)?
**A.** 6/23 (27%), 6/25 (24%), 11%, not significant

**Q.** What about the “tumour outcome (control, treated, inhibition, significance)” value (Carcinogen: N-NITROBIS(2-OXOPROPYL)AMINE, 60559-38-4, Dose [Inhibitor]: 0.5 OR 1.0 MMOL/KG DIET DAILY STARTING 1 WK AFTER CARCINOGEN TREATMENT AND CONTINUING THROUGH THE END OF THE STUDY (STUD, Species: HAMSTER, Strain/Sex: SYRIAN/MALE, Target Tissue: Type of Lesion: LIVER: BENIGN TUMOR, Dose [Carcinogen]: 40 MG/KG BW ONCE) of the same compound?
**A.** 5/24 (21%), 25/41 (62%), -195%, p<0.05

**Q.** What about the “tumour outcome (control, treated, inhibition, significance)” value (Carcinogen: N-NITROBIS(2-OXOPROPYL)AMINE, 60559-38-4, Dose [Inhibitor]: 0.5 OR 1.0 MMOL/KG DIET DAILY STARTING 1 WK AFTER CARCINOGEN TREATMENT AND CONTINUING THROUGH THE END OF THE STUDY (STUD, Species: HAMSTER, Strain/Sex: SYRIAN/MALE, Target Tissue: Type of Lesion: ND: TOTAL TUMOR, Dose [Carcinogen]: 10 MG/KG BW ONCE) of the same compound?
**A.** 12/22 (54%), 24/31 (77%), -43%, not significant
